Laboratory results taken from ChEMBL document CHEMBL4706554 (Eur J Med Chem, 2020).
pIC50: −log10 of the molar value. Calls of active or inactive are those of the source.

How the values were obtained:
[1] = target: T1, Casein kinase II subunit alpha (Homo sapiens, UniProt P68400); test: Displacement of fluorescent tracer from full-length human C-terminal NanoLuc-tagged CK2alpha expressed in HEK293T permeabilized cells measured after 2 hrs by NanoBRET assay; type: cell-based
[2] = target: T2, Casein kinase II subunit alpha' (Homo sapiens, UniProt P19784); test: Displacement of fluorescent tracer from full-length human C-terminal NanoLuc-tagged CK2alpha' expressed in HEK293T cells measured after 2 hrs by NanoBRET assay; type: cell-based
T2 sequence (P19784 whole entry): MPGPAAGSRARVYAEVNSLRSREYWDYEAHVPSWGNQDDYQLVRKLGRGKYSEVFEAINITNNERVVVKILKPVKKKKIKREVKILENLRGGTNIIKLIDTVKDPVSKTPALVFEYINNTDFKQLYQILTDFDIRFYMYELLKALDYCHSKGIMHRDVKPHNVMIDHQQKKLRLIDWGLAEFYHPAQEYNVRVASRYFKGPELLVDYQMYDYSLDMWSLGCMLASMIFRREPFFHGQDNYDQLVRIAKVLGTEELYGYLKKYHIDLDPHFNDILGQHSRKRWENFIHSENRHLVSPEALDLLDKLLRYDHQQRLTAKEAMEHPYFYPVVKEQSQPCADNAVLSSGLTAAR

[3] = target: T2, Casein kinase II subunit alpha'; test: Displacement of fluorescent tracer from full-length human C-terminal NanoLuc-tagged CK2alpha' expressed in HEK293T permeabilized cells measured after 2 hrs by NanoBRET assay; type: cell-based
[4] = target: T1, Casein kinase II subunit alpha; test: Displacement of fluorescent tracer from full-length human C-terminal NanoLuc-tagged CK2alpha expressed in HEK293T cells measured after 2 hrs by NanoBRET assay; type: cell-based
[5] = tested on: UACC-62; test: Cytotoxicity against human UACC-62 cells assessed as cell growth inhibition at 10 uM incubated for 48 hrs by SRB assay; type: functional, cell-based
[6] = target: Dual specificity tyrosine-phosphorylation-regulated kinase 1A (Homo sapiens) (UniProt Q13627); test: Inhibition of wild-type human partial length DYRK1A (H129 to S509 residues) expressed in mammalian expression system at 1 uM by Kinomescan method
[7] = tested on: SK-MEL-5; test: Cytotoxicity against human SK-MEL-5 cells assessed as cell growth inhibition at 10 uM incubated for 48 hrs by SRB assay; type: functional, cell-based
[8] = tested on: HCT-15; test: Cytotoxicity against human HCT-15 cells assessed as cell growth inhibition at 10 uM incubated for 48 hrs by SRB assay; type: functional, cell-based
[9] = tested on: HCC 2998; test: Cytotoxicity against human HCC 2998 cells assessed as cell growth inhibition at 10 uM incubated for 48 hrs by SRB assay; type: functional, cell-based
[10] = tested on: BT-549; test: Cytotoxicity against human BT-549 cells assessed as cell growth inhibition at 10 uM incubated for 48 hrs by SRB assay; type: functional, cell-based
[11] = tested on: RXF 393; test: Cytotoxicity against human RXF 393 cells assessed as cell growth inhibition at 10 uM incubated for 48 hrs by SRB assay; type: functional, cell-based
[12] = tested on: MDA-MB-435; test: Cytotoxicity against human MDA-MB-435 cells assessed as cell growth inhibition at 10 uM incubated for 48 hrs by SRB assay; type: functional, cell-based
[13] = tested on: Malme-3M; test: Cytotoxicity against human Malme-3M cells assessed as cell growth inhibition at 10 uM incubated for 48 hrs by SRB assay; type: functional, cell-based
[14] = tested on: Hs-578T; test: Cytotoxicity against human Hs-578T cells assessed as cell growth inhibition at 10 uM incubated for 48 hrs by SRB assay; type: functional, cell-based
[15] = tested on: COLO 205; test: Cytotoxicity against human COLO 205 cells assessed as cell growth inhibition at 10 uM incubated for 48 hrs by SRB assay; type: functional, cell-based
[16] = tested on: DU-145; test: Cytotoxicity against human DU-145 cells assessed as cell growth inhibition at 10 uM incubated for 48 hrs by SRB assay; type: functional, cell-based
[17] = tested on: OVCAR-5; test: Cytotoxicity against human OVCAR-5 cells assessed as cell growth inhibition at 10 uM incubated for 48 hrs by SRB assay; type: functional, cell-based
[18] = tested on: SNB-19; test: Cytotoxicity against human SNB-19 cells assessed as cell growth inhibition at 10 uM incubated for 48 hrs by SRB assay; type: functional, cell-based
[19] = tested on: NCI-H322M; test: Cytotoxicity against human NCI-H322M cells assessed as cell growth inhibition at 10 uM incubated for 48 hrs by SRB assay; type: functional, cell-based
[20] = tested on: SK-OV-3; test: Cytotoxicity against human SK-OV-3 cells assessed as cell growth inhibition at 10 uM incubated for 48 hrs by SRB assay; type: functional, cell-based
[21] = tested on: NCI-H23; test: Cytotoxicity against human NCI-H23 cells assessed as cell growth inhibition at 10 uM incubated for 48 hrs by SRB assay; type: functional, cell-based
[22] = tested on: 786-0; test: Cytotoxicity against human 786-0 cells assessed as cell growth inhibition at 10 uM incubated for 48 hrs by SRB assay; type: functional, cell-based
[23] = tested on: PC-3; test: Cytotoxicity against human PC-3 cells assessed as cell growth inhibition at 10 uM incubated for 48 hrs by SRB assay; type: functional, cell-based
[24] = tested on: NCI-H226; test: Cytotoxicity against human NCI-H226 cells assessed as cell growth inhibition at 10 uM incubated for 48 hrs by SRB assay; type: functional, cell-based
[25] = tested on: U-251; test: Cytotoxicity against human U251 cells assessed as cell growth inhibition at 10 uM incubated for 48 hrs by SRB assay; type: functional, cell-based
[26] = tested on: HCT-116; test: Cytotoxicity against human HCT-116 cells assessed as cell growth inhibition at 10 uM incubated for 48 hrs by SRB assay; type: functional, cell-based
[27] = tested on: HOP-92; test: Cytotoxicity against human HOP-92 cells assessed as cell growth inhibition at 10 uM incubated for 48 hrs by SRB assay; type: functional, cell-based
[28] = tested on: CCRF-CEM; test: Cytotoxicity against human CCRF-CEM cells assessed as cell growth inhibition at 10 uM incubated for 48 hrs by SRB assay; type: functional, cell-based
[29] = tested on: SK-MEL-2; test: Cytotoxicity against human SK-MEL-2 cells assessed as cell growth inhibition at 10 uM incubated for 48 hrs by SRB assay; type: functional, cell-based
[30] = tested on: M14; test: Cytotoxicity against human M14 cells assessed as cell growth inhibition at 10 uM incubated for 48 hrs by SRB assay; type: functional, cell-based
[31] = tested on: SR; test: Cytotoxicity against human SR cells assessed as cell growth inhibition at 10 uM incubated for 48 hrs by SRB assay; type: functional, cell-based
[32] = tested on: HL-60(TB); test: Cytotoxicity against human HL-60(TB) cells assessed as cell growth inhibition at 10 uM incubated for 48 hrs by SRB assay; type: functional, cell-based
[33] = tested on: UO-31; test: Cytotoxicity against human UO-31 cells assessed as cell growth inhibition at 10 uM incubated for 48 hrs by SRB assay; type: functional, cell-based
[34] = tested on: SK-MEL-28; test: Cytotoxicity against human SK-MEL-28 cells assessed as cell growth inhibition at 10 uM incubated for 48 hrs by SRB assay; type: functional, cell-based
[35] = tested on: SNB-75; test: Cytotoxicity against human SNB-75 cells assessed as cell growth inhibition at 10 uM incubated for 48 hrs by SRB assay; type: functional, cell-based
[36] = tested on: OVCAR-4; test: Cytotoxicity against human OVCAR-4 cells assessed as cell growth inhibition at 10 uM incubated for 48 hrs by SRB assay; type: functional, cell-based
[37] = tested on: MDA-MB-468; test: Cytotoxicity against human MDA-MB-468 cells assessed as cell growth inhibition at 10 uM incubated for 48 hrs by SRB assay; type: functional, cell-based
[38] = tested on: A498; test: Cytotoxicity against human A498 cells assessed as cell growth inhibition at 10 uM incubated for 48 hrs by SRB assay; type: functional, cell-based
[39] = tested on: SF-295; test: Cytotoxicity against human SF-295 cells assessed as cell growth inhibition at 10 uM incubated for 48 hrs by SRB assay; type: functional, cell-based
[40] = tested on: SW-620; test: Cytotoxicity against human SW-620 cells assessed as cell growth inhibition at 10 uM incubated for 48 hrs by SRB assay; type: functional, cell-based
[41] = tested on: SF-539; test: Cytotoxicity against human SF-539 cells assessed as cell growth inhibition at 10 uM incubated for 48 hrs by SRB assay; type: functional, cell-based
[42] = tested on: HT-29; test: Cytotoxicity against human HT-29 cells assessed as cell growth inhibition at 10 uM incubated for 48 hrs by SRB assay; type: functional, cell-based
[43] = tested on: MOLT-4; test: Cytotoxicity against human MOLT-4 cells assessed as cell growth inhibition at 10 uM incubated for 48 hrs by SRB assay; type: functional, cell-based
[44] = tested on: SN12C; test: Cytotoxicity against human SN12C cells assessed as cell growth inhibition at 10 uM incubated for 48 hrs by SRB assay; type: functional, cell-based
[45] = tested on: KM12; test: Cytotoxicity against human KM12 cells assessed as cell growth inhibition at 10 uM incubated for 48 hrs by SRB assay; type: functional, cell-based
[46] = tested on: NCI/ADR-RES; test: Cytotoxicity against human NCI/ADR-RES cells assessed as cell growth inhibition at 10 uM incubated for 48 hrs by SRB assay; type: functional, cell-based
[47] = tested on: OVCAR-3; test: Cytotoxicity against human OVCAR-3 cells assessed as cell growth inhibition at 10 uM incubated for 48 hrs by SRB assay; type: functional, cell-based
[48] = tested on: NCI-H522; test: Cytotoxicity against human NCI-H522 cells assessed as cell growth inhibition at 10 uM incubated for 48 hrs by SRB assay; type: functional, cell-based
[49] = tested on: CAKI-1; test: Cytotoxicity against human CAK1 cells assessed as cell growth inhibition at 10 uM incubated for 48 hrs by SRB assay; type: functional, cell-based
[50] = tested on: MCF7; test: Cytotoxicity against human MCF7 cells assessed as cell growth inhibition at 10 uM incubated for 48 hrs by SRB assay; type: functional, cell-based
[51] = tested on: TK-10; test: Cytotoxicity against human TK-10 cells assessed as cell growth inhibition at 10 uM incubated for 48 hrs by SRB assay; type: functional, cell-based
[52] = tested on: K562; test: Cytotoxicity against human K562 cells assessed as cell growth inhibition at 10 uM incubated for 48 hrs by SRB assay; type: functional, cell-based
[53] = tested on: OVCAR-8; test: Cytotoxicity against human OVCAR-8 cells assessed as cell growth inhibition at 10 uM incubated for 48 hrs by SRB assay; type: functional, cell-based
[54] = tested on: HOP-62; test: Cytotoxicity against human HOP-62 cells assessed as cell growth inhibition at 10 uM incubated for 48 hrs by SRB assay; type: functional, cell-based
[55] = tested on: SF-268; test: Cytotoxicity against human SF-268 cells assessed as cell growth inhibition at 10 uM incubated for 48 hrs by SRB assay; type: functional, cell-based
[56] = tested on: EKVX; test: Cytotoxicity against human EKVX cells assessed as cell growth inhibition at 10 uM incubated for 48 hrs by SRB assay; type: functional, cell-based
[57] = tested on: IGROV-1; test: Cytotoxicity against human IGROV-1 cells assessed as cell growth inhibition at 10 uM incubated for 48 hrs by SRB assay; type: functional, cell-based
[58] = tested on: MDA-MB-231; test: Cytotoxicity against human MDA-MB-231 cells assessed as cell growth inhibition at 10 uM incubated for 48 hrs by SRB assay; type: functional, cell-based
[59] = tested on: NCI-H460; test: Cytotoxicity against human NCI-H460 cells assessed as cell growth inhibition at 10 uM incubated for 48 hrs by SRB assay; type: functional, cell-based
[60] = tested on: LOX IMVI; test: Cytotoxicity against human LOX IMVI cells assessed as cell growth inhibition at 10 uM incubated for 48 hrs by SRB assay; type: functional, cell-based
[61] = tested on: ACHN; test: Cytotoxicity against human ACHN cells assessed as cell growth inhibition at 10 uM incubated for 48 hrs by SRB assay; type: functional, cell-based
[62] = tested on: RPMI-8226; test: Cytotoxicity against human RPMI-8226 cells assessed as cell growth inhibition at 10 uM incubated for 48 hrs by SRB assay; type: functional, cell-based
[63] = tested on: UACC-257; test: Cytotoxicity against human UACC-257 cells assessed as cell growth inhibition at 10 uM incubated for 48 hrs by SRB assay; type: functional, cell-based
[64] = target: Homeodomain-interacting protein kinase 1 (Homo sapiens) (UniProt Q86Z02); test: Inhibition of wild-type human partial length HIPK1 (M146 to I555 residues) expressed in mammalian expression system at 1 uM by Kinomescan method
Sequence of Homeodomain-interacting protein kinase 1 (Homo sapiens) (Q86Z02 whole entry, looked up, the tested form may be a part): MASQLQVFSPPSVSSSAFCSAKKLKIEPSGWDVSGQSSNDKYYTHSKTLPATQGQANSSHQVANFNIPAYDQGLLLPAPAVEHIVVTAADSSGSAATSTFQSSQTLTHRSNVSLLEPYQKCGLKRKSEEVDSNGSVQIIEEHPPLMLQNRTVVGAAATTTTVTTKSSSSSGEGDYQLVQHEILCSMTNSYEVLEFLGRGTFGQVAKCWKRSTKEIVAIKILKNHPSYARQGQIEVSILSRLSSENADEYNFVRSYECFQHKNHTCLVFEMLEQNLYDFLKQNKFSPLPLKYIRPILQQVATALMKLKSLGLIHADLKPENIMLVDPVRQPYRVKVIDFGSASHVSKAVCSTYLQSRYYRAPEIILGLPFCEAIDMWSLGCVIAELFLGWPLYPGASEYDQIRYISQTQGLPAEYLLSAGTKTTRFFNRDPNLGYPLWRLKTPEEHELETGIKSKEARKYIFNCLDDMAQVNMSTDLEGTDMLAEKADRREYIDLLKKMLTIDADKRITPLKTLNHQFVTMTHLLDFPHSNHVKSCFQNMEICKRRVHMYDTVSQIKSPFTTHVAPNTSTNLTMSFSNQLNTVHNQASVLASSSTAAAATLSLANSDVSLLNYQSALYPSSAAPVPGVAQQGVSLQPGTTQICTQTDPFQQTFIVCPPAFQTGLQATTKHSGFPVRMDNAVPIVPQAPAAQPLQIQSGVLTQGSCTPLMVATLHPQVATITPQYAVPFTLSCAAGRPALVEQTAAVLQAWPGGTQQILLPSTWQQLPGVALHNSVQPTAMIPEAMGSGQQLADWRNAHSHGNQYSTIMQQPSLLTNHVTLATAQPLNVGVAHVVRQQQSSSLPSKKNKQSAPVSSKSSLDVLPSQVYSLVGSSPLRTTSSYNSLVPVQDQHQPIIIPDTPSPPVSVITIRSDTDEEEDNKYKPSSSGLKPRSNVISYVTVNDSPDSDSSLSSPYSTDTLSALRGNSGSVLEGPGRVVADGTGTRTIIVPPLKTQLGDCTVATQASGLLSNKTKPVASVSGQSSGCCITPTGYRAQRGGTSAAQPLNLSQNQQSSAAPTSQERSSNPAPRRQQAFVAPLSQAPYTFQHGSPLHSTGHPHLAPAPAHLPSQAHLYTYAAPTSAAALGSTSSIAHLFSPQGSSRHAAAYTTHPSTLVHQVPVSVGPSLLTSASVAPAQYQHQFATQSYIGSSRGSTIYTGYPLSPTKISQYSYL

[65] = tested on: T47D; test: Cytotoxicity against human T47D cells assessed as cell growth inhibition at 10 uM incubated for 48 hrs by SRB assay; type: functional, cell-based
[66] = tested on: A549; test: Cytotoxicity against human A549 cells assessed as cell growth inhibition at 10 uM incubated for 48 hrs by SRB assay; type: functional, cell-based

T1 sequence (P68400 whole entry): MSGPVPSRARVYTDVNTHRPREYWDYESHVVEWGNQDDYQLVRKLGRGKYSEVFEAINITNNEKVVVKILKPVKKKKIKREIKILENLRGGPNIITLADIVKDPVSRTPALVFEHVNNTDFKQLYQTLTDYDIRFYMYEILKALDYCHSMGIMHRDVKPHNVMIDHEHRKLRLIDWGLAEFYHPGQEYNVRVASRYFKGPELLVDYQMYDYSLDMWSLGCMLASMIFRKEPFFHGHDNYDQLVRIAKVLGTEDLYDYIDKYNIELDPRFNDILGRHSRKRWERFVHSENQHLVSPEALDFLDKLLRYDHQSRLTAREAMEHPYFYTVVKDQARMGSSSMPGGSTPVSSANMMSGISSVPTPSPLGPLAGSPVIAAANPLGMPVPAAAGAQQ

COC(=O)c1ccc(-c2cnn3ccc(N(CCOCCO)C(=O)OC(C)(C)C)nc23)cc1O
5.12: pIC50 [1]
< 4.30: pIC50 [2] | pIC50 [3] | pIC50 [4]

CC(C)(C)OC(=O)N(CCOCCO)c1ccn2ncc(-c3ccc(C(=O)O)c(O)c3)c2n1
inactive: Activity [5] | inhibition [6] | Activity [7] | Activity [8] | Activity [9] | Activity [10] | Activity [11] | Activity [12] | Activity [13] | Activity [14] | Activity [15] | Activity [16] | Activity [17] | Activity [18] | Activity [19] | Activity [20] | Activity [21] | Activity [22] | Activity [23] | Activity [24] | Activity [25] | Activity [26] | Activity [27] | Activity [28] | Activity [29] | Activity [30] | Activity [31] | Activity [32] | Activity [33] | Activity [34] | Activity [35] | Activity [36] | Activity [37] | Activity [38] | Activity [39] | Activity [40] | Activity [41] | Activity [42] | Activity [43] | Activity [44] | Activity [45] | Activity [46] | Activity [47] | Activity [48] | Activity [49] | Activity [50] | Activity [51] | Activity [52] | Activity [53] | Activity [54] | Activity [55] | Activity [56] | Activity [57] | Activity [58] | Activity [59] | Activity [60] | Activity [61] | Activity [62] | Activity [63] | inhibition [64] | Activity [65] | Activity [66]

O=C(O)c1ccc2cc1OCCOCCNc1ccn3ncc-2c3n1
7.12: pIC50 [1]
6.52: pIC50 [3]

CC(C)(C)OC(=O)N1CCOCCOc2cc(ccc2C(=O)O)-c2cnn3ccc1nc23
6.11: pIC50 [3]

COC(=O)c1ccc2cc1OCCOCCNc1ccn3ncc-2c3n1
4.88: pIC50 [1]
< 4.30: pIC50 [2] | pIC50 [3] | pIC50 [4]
